US20230174576A1, “BETA-STRAND BRIDGE PEPTIDE” (Xeno-Interface Inc., priority 2020, published 2023)

System: HeLa cells
Experiment: Cell membrane permeability assay, evaluation by FACS
Type: cell-based
Settings: FITC-labeled peptide 0.1 μM, 37° C.
Method: HeLa cells are grown in DMEM containing 10% fetal bovine serum and penicillin/streptomycin, treated with trypsin, washed twice with medium using a centrifuge, and seeded into multi-well plates for overnight incubation. FITC-labeled peptides are added to the cells at 37° C. and the cells are incubated at 37° C. The cells are washed twice with medium and twice with PBS, and treated with trypsin at 37° C. HeLa cells are collected and centrifuged, washed twice with medium and twice with PBS, and PBS containing propidium iodide is added to the cell. The cell membrane permeability of the peptides is quantitatively analyzed by FACS.
(Evaluation of Cell Membrane Permeability by FACS)

Ac—W I F [K] H R—NH2 [WT] was tested, and the “Mean: FITC-A” value was 3192.
